Test results from patent US12233073B2, “Skin care formulations and skin cancer treatment” (Regents of the University of Minnesota, priority 2017, dated 2025).
Where “and” joins values, the source holds several entries; their conditions need not be identical. Equal values may be shown once. Read-outs that look alike come from different tables or passages of the source.

Test: Pharmacokinetics: plasma levels after topical RB cream
Type: in vivo, SKH1-Hrhr hairless mice
Conditions: for ng/ml RB (plasma, single mouse): listed as RB; for concentration at 24 h: 24 h post-dose
Experimental: To assess pharmacokinetics, RB cream (1.0 mg RB in 100 μl cream) was topically applied to the dorsum of SKH1-Hrhr hairless mice (Charles River), and plasma sample were taken at 0, 0.25, 0.5, 1, 2, 6, 24 and 48 hours post-dose (3 mice/time point).

C=CC[N+]1([C@H]2C[C@H]3[C@@H]4CC[C@H]5C[C@H](O)[C@@H](N6CCOCC6)C[C@]5(C)[C@H]4CC[C@]3(C)[C@H]2OC(C)=O)CCCC1 [rocuronium bromide]
time of peak plasma levels post application (1.0 mg RB in 100 μl cream topically): ≤ 15 min
ng/ml RB (plasma, single mouse) (0.25 h post-dose, 1.0 mg RB in 100 μl cream topically): 3058 ng/mL and 18 ng/mL and 210 ng/mL
ng/ml RB (plasma, single mouse) (0.5 h post-dose, 1.0 mg RB in 100 μl cream topically): 123 ng/mL and 36 ng/mL and 73 ng/mL
ng/ml RB (plasma, single mouse) (1 h post-dose, 1.0 mg RB in 100 μl cream topically): 7 ng/mL and 25 ng/mL and 48 ng/mL
ng/ml RB (plasma, single mouse) (2 h post-dose, 1.0 mg RB in 100 μl cream topically, BDL = below detection limit (~2 ng/ml)): 15 ng/mL
ng/ml RB (plasma, single mouse) (6 h post-dose, 1.0 mg RB in 100 μl cream topically, BDL = below detection limit (~2 ng/ml)): 8 ng/mL
concentration at 0.25 h (SKH1-Hrhr hairless, mouse, plasma, topical, 1 mg, 0.25 h post-dose, 3 mice): 1100 ng/mL
concentration at 0.5 h (SKH1-Hrhr hairless, mouse, plasma, topical, 1 mg, 0.5 h post-dose, 3 mice): 77.3 ng/mL
concentration at 1 h (SKH1-Hrhr hairless, mouse, plasma, topical, 1 mg, 1 h post-dose, 3 mice): 26.7 ng/mL
concentration at 2 h (SKH1-Hrhr hairless, mouse, plasma, topical, 1 mg, 2 h post-dose, 1.0 mg RB in 100 μl cream topically, BDL = below detection limit (~2 ng/ml), read-out: ng/ml RB (plasma, single mouse)): 11 ng/mL
concentration at 2 h (SKH1-Hrhr hairless, mouse, plasma, topical, 1 mg, 2 h post-dose, 3 mice, read-out: MEAN ng/ml RB (plasma)): 8.7 ng/mL
concentration at 6 h (SKH1-Hrhr hairless, mouse, plasma, topical, 1 mg, 6 h post-dose, 1.0 mg RB in 100 μl cream topically, BDL = below detection limit (~2 ng/ml), read-out: ng/ml RB (plasma, single mouse)): 7 ng/mL
concentration at 6 h (SKH1-Hrhr hairless, mouse, plasma, topical, 1 mg, 6 h post-dose, 3 mice, read-out: MEAN ng/ml RB (plasma)): 5 ng/mL
concentration at 24 h (SKH1-Hrhr hairless, mouse, plasma, topical, 1 mg, 1.0 mg RB in 100 μl cream topically, BDL = below detection limit (~2 ng/ml), read-out: ng/ml RB (plasma, single mouse)): 14 ng/mL
concentration at 24 h (SKH1-Hrhr hairless, mouse, plasma, topical, 1 mg, 3 mice, read-out: MEAN ng/ml RB (plasma)): 4.7 ng/mL
time at which RB in plasma approaches baseline levels for the assay (post-dose, 1.0 mg RB in 100 μl cream topically): approximately 6 hours
